Assay results taken from publication PMC5218480 (PLoS ONE, 2017).

Tested on: MV-4-11 cells
Test: Gene expression microarray analysis (Affymetrix PrimeView) and GSEA
Type: cell-based, human
Set-up: RFU PODN (11730768_x_at) / Fold change /veh PODN (11730768_x_at) / RFU LINC00158 (11744669_a_at) / Fold change /veh LINC00158 (11744669_a_at) / RFU DUSP10 (11751237_a_at) / Fold change /veh DUSP10 (11751237_a_at) / RFU ID3 (11757404_x_at) / Fold change /veh ID3 (11757404_x_at) / RFU PLEKHG5 (11737974_s_at) / Fold change /veh PLEKHG5 (11737974_s_at) / RFU LRRC4B (11730491_at) / Fold change /veh LRRC4B (11730491_at) / RFU GIMAP4 (11747438_a_at) / Fold change /veh GIMAP4 (11747438_a_at) / RFU KRT8 (11758183_x_at) / Fold change /veh KRT8 (11758183_x_at) / RFU CNN1 (11734310_a_at) / Fold change /veh CNN1 (11734310_a_at) / RFU VPS37D (11726825_at) / Fold change /veh VPS37D (11726825_at) / RFU C10orf10 (11716522_x_at) / Fold change /veh C10orf10 (11716522_x_at) / RFU KIR2DL2 /// KIR2DL4 /// KIR2DL5A /// KIR2DL5B /// KIR2DS1 /// KIR2DS2 /// KIR2DS3 /// KIR2DS4 /// KIR3DL3 /// KIR3DL3 /// KIR3DS1 (11738374_at) / Fold change /veh KIR2DL2 /// KIR2DL4 /// KIR2DL5A /// KIR2DL5B /// KIR2DS1 /// KIR2DS2 /// KIR2DS3 /// KIR2DS4 /// KIR3DL3 /// KIR3DL3 /// KIR3DS1 (11738374_at) / RFU C1QL1 (11718748_at) / Fold change /veh C1QL1 (11718748_at) / RFU TMPRSS4 (11747572_a_at) / Fold change /veh TMPRSS4 (11747572_a_at) / RFU HAMP (11756126_x_at) / Fold change /veh HAMP (11756126_x_at) / RFU RNFT2 (11725882_a_at) / Fold change /veh RNFT2 (11725882_a_at) / RFU NR4A2 (11747474_a_at) / Fold change /veh NR4A2 (11747474_a_at) / RFU ABCC12 (11746883_a_at) / Fold change /veh ABCC12 (11746883_a_at) / RFU TMEM136 (11760407_x_at) / Fold change /veh TMEM136 (11760407_x_at) / RFU CLDN22 /// WWC2 (11732394_at) / Fold change /veh CLDN22 /// WWC2 (11732394_at) / RFU HLA-DPB1 (11760878_x_at) / Fold change /veh HLA-DPB1 (11760878_x_at) / RFU SPINT1 (11716480_a_at) / Fold change /veh SPINT1 (11716480_a_at) / RFU GAP43 (11754022_s_at) / Fold change /veh GAP43 (11754022_s_at) / RFU A4GNT (11735810_at) / Fold change /veh A4GNT (11735810_at) / RFU PRB3 (11715151_x_at) / Fold change /veh PRB3 (11715151_x_at) / RFU TUBB4B (11761932_at) / Fold change /veh TUBB4B (11761932_at) / RFU CAPN14 (11732068_a_at) / Fold change /veh CAPN14 (11732068_a_at) / RFU TMCC2 (11721928_a_at) / Fold change /veh TMCC2 (11721928_a_at) / RFU IRGQ (11745062_a_at) / Fold change /veh IRGQ (11745062_a_at) / RFU FAM174B (11720279_a_at) / Fold change /veh FAM174B (11720279_a_at) / RFU TMPRSS4 (11748680_a_at) / Fold change /veh TMPRSS4 (11748680_a_at) / RFU FAM212B (11763350_a_at) / Fold change /veh FAM212B (11763350_a_at) / RFU PLEKHG5 (11743358_a_at) / Fold change /veh PLEKHG5 (11743358_a_at) / RFU ZSCAN30 (11745921_a_at) / Fold change /veh ZSCAN30 (11745921_a_at) / RFU CMKLR1 (11741424_a_at) / Fold change /veh CMKLR1 (11741424_a_at) / RFU LOC101060620 /// MAPK8IP1 (11723275_at) / Fold change /veh LOC101060620 /// MAPK8IP1 (11723275_at) / RFU SPTSSB (11747773_x_at) / Fold change /veh SPTSSB (11747773_x_at) / RFU PRSS12 (11739890_at) / Fold change /veh PRSS12 (11739890_at) / RFU BIN1 (11741810_x_at) / Fold change /veh BIN1 (11741810_x_at) / RFU WNT11 (11732464_a_at) / Fold change /veh WNT11 (11732464_a_at) / RFU C10orf10 (11716521_a_at) / Fold change /veh C10orf10 (11716521_a_at) / RFU C5orf56 (11738089_at) / Fold change /veh C5orf56 (11738089_at) / RFU CYB561 (11721691_x_at) / Fold change /veh CYB561 (11721691_x_at) / RFU ANKRD19P (11752326_a_at) / Fold change /veh ANKRD19P (11752326_a_at) / RFU OR2T12 /// OR2T33 /// OR2T8 (11738714_s_at) / Fold change /veh OR2T12 /// OR2T33 /// OR2T8 (11738714_s_at) / RFU VCAN (11748164_a_at) / Fold change /veh VCAN (11748164_a_at) / RFU JSRP1 (11732532_at) / Fold change /veh JSRP1 (11732532_at) / RFU KRTAP10-11 (11738290_x_at) / Fold change /veh KRTAP10-11 (11738290_x_at) / RFU MYO3A (11730013_a_at) / Fold change /veh MYO3A (11730013_a_at) / RFU EBF3 (11725865_a_at) / Fold change /veh EBF3 (11725865_a_at) / RFU CAMK2N1 (11719241_x_at) / Fold change /veh CAMK2N1 (11719241_x_at) / RFU C5orf56 (11738088_a_at) / Fold change /veh C5orf56 (11738088_a_at) / RFU OLFML3 (11715873_a_at) / Fold change /veh OLFML3 (11715873_a_at) / RFU LOC100653217 /// NTM (11731650_a_at) / Fold change /veh LOC100653217 /// NTM (11731650_a_at) / RFU MAPK11 (11762145_a_at) / Fold change /veh MAPK11 (11762145_a_at) / RFU FIZ1 (11724087_x_at) / Fold change /veh FIZ1 (11724087_x_at) / RFU OASL (11726364_x_at) / Fold change /veh OASL (11726364_x_at) / RFU SOX15 (11748057_x_at) / Fold change /veh SOX15 (11748057_x_at) / RFU CD79A (11719716_a_at) / Fold change /veh CD79A (11719716_a_at) / RFU HIST1H1D (11736915_at) / Fold change /veh HIST1H1D (11736915_at) / RFU CASKIN2 (11723855_a_at) / Fold change /veh CASKIN2 (11723855_a_at) / RFU LOC730098 (11760151_x_at) / Fold change /veh LOC730098 (11760151_x_at) / RFU OR4N2 (11742367_at) / Fold change /veh OR4N2 (11742367_at) / RFU PRRT2 (11749266_a_at) / Fold change /veh PRRT2 (11749266_a_at) / RFU SNX32 (11753110_a_at) / Fold change /veh SNX32 (11753110_a_at) / RFU CDHR5 (11726645_a_at) / Fold change /veh CDHR5 (11726645_a_at) / RFU RCAN1 (11760418_a_at) / Fold change /veh RCAN1 (11760418_a_at) / RFU FAM167A (11723789_a_at) / Fold change /veh FAM167A (11723789_a_at) / RFU FAM26E (11764081_at) / Fold change /veh FAM26E (11764081_at) / RFU ISYNA1 (11749810_s_at) / Fold change /veh ISYNA1 (11749810_s_at) / RFU ACY1 (11761880_at) / Fold change /veh ACY1 (11761880_at) / RFU 11764098_at / Fold change /veh 11764098_at / RFU SAMD14 (11745864_x_at) / Fold change /veh SAMD14 (11745864_x_at) / RFU NPB (11741838_a_at) / Fold change /veh NPB (11741838_a_at) / RFU TMPRSS6 (11731388_a_at) / Fold change /veh TMPRSS6 (11731388_a_at) / RFU KRTAP10-2 (11738614_at) / Fold change /veh KRTAP10-2 (11738614_at) / RFU ARHGAP8 /// PRR5-ARHGAP8 (11727945_x_at) / Fold change /veh ARHGAP8 /// PRR5-ARHGAP8 (11727945_x_at) / RFU KRTAP5-7 /// NADSYN1 (11734609_at) / Fold change /veh KRTAP5-7 /// NADSYN1 (11734609_at) / RFU RASL12 (11751679_a_at) / Fold change /veh RASL12 (11751679_a_at) / RFU CDKN2B (11736163_a_at) / Fold change /veh CDKN2B (11736163_a_at) / RFU PRF1 (11729649_at) / Fold change /veh PRF1 (11729649_at) / RFU, ZNF638 /// ZNF638-IT1 / Fold change vs veh, ZNF638 /// ZNF638-IT1 / RFU, PANK3 / Fold change vs veh, PANK3 / RFU, SH3YL1 / Fold change vs veh, SH3YL1 / RFU, ZEB2 / Fold change vs veh, ZEB2 / RFU, NRIP1 / Fold change vs veh, NRIP1 / RFU, PTTG1IP / Fold change vs veh, PTTG1IP / RFU, CAPN2 / Fold change vs veh, CAPN2 / RFU, MED14 / Fold change vs veh, MED14 / RFU, SNORA58 / Fold change vs veh, SNORA58 / RFU, C1orf63 / Fold change vs veh, C1orf63 / RFU, LRRFIP1 / Fold change vs veh, LRRFIP1 / RFU, NDUFAF7 / Fold change vs veh, NDUFAF7 / RFU, SLC12A2 / Fold change vs veh, SLC12A2 / RFU, IBTK / Fold change vs veh, IBTK / RFU, ESF1 / Fold change vs veh, ESF1 / Fold change vs veh, TMEM50B / RFU, TAOK1 / Fold change vs veh, TAOK1 / RFU, ACBD3 / Fold change vs veh, ACBD3 / RFU, TMA16 / Fold change vs veh, TMA16 / RFU, RWDD3 / Fold change vs veh, RWDD3 / RFU, BCAT1 / Fold change vs veh, BCAT1 / RFU, EDEM3 / Fold change vs veh, EDEM3 / RFU, TMEM33 / Fold change vs veh, TMEM33 / RFU, WDR75 / Fold change vs veh, WDR75 / RFU, AHCTF1 / Fold change vs veh, AHCTF1 / RFU, TFRC / Fold change vs veh, TFRC / RFU, ZDHHC17 / Fold change vs veh, ZDHHC17 / RFU, NOM1 / Fold change vs veh, NOM1 / RFU, ARL8B / Fold change vs veh, ARL8B / RFU, ZBTB11 / Fold change vs veh, ZBTB11 / RFU, TAMM41 / Fold change vs veh, TAMM41 / RFU, KIAA1704 /// LOC100996395 / Fold change vs veh, KIAA1704 /// LOC100996395 / RFU, ING1 / Fold change vs veh, ING1 / RFU, TRMT61B / Fold change vs veh, TRMT61B / RFU, FUBP3 / Fold change vs veh, FUBP3 / RFU, TP53 / Fold change vs veh, TP53 / RFU, TNKS2 / Fold change vs veh, TNKS2 / RFU, ZFP14 / Fold change vs veh, ZFP14 / RFU, ACTR2 / Fold change vs veh, ACTR2 / RFU, PPP3R1 / Fold change vs veh, PPP3R1 / RFU, PIK3R1 / Fold change vs veh, PIK3R1 / RFU, HNRNPA1 / Fold change vs veh, HNRNPA1 / RFU, RNF170 / Fold change vs veh, RNF170 / RFU, ZNF28 / Fold change vs veh, ZNF28 / RFU, RNGTT / Fold change vs veh, RNGTT / RFU, OGT / Fold change vs veh, OGT / RFU, BRD1 / Fold change vs veh, BRD1 / RFU, MARS / Fold change vs veh, MARS / RFU, ZNF655 / Fold change vs veh, ZNF655 / RFU, FAHD1 / Fold change vs veh, FAHD1 / RFU, BDP1 / Fold change vs veh, BDP1 / RFU, LRRCC1 / Fold change vs veh, LRRCC1 / RFU, ARID1A / Fold change vs veh, ARID1A / RFU, ZNF146 / Fold change vs veh, ZNF146 / RFU, ZNF330 / Fold change vs veh, ZNF330 / RFU, GPN3 / Fold change vs veh, GPN3 / RFU, C9orf123 / Fold change vs veh, C9orf123 / RFU, N4BP2L2 / Fold change vs veh, N4BP2L2 / RFU, ARFIP1 / Fold change vs veh, ARFIP1 / RFU, FAM179B / Fold change vs veh, FAM179B / RFU, BCL10 / Fold change vs veh, BCL10 / RFU, UHRF1BP1L / Fold change vs veh, UHRF1BP1L / RFU, BET1 / Fold change vs veh, BET1 / RFU, CNOT2 / Fold change vs veh, CNOT2 / RFU, ZNF268 / Fold change vs veh, ZNF268 / Fold change vs veh, ZNF507 / RFU, DGCR2 / Fold change vs veh, DGCR2 / RFU, WDSUB1 / Fold change vs veh, WDSUB1 / Fold change vs veh, HSP90B1 /// MIR3652 / RFU, ADSS / Fold change vs veh, ADSS / RFU, GK / Fold change vs veh, GK / RFU, ZNF148 / Fold change vs veh, ZNF148 / RFU, TAF9 / Fold change vs veh, TAF9 / RFU, SLC1A5 / Fold change vs veh, SLC1A5 / RFU, SLMO2 / Fold change vs veh, SLMO2 / RFU, ABCC4 / Fold change vs veh, ABCC4 / RFU, LOC101060439 /// RAP1B / Fold change vs veh, LOC101060439 /// RAP1B / RFU, RFX7 / Fold change vs veh, RFX7 / RFU, GTPBP10 / Fold change vs veh, GTPBP10 / RFU, CNEP1R1 / Fold change vs veh, CNEP1R1 / RFU, BIVM-ERCC5 /// ERCC5 / Fold change vs veh, BIVM-ERCC5 /// ERCC5 / RFU, ILF3 / Fold change vs veh, ILF3 / RFU 11762660_at / Fold change /veh 11762660_at / RFU VCAN (11757783_s_at) / Fold change /veh VCAN (11757783_s_at) / RFU DDX43 (11728927_at) / Fold change /veh DDX43 (11728927_at) / RFU KRT8 (11758188_x_at) / Fold change /veh KRT8 (11758188_x_at) / RFU NKD1 (11759106_at) / Fold change /veh NKD1 (11759106_at) / RFU SRD5A1 (11742802_a_at) / Fold change /veh SRD5A1 (11742802_a_at) / RFU TPSAB1 /// TPSB2 (11721975_s_at) / Fold change /veh TPSAB1 /// TPSB2 (11721975_s_at) / RFU GSTM3 (11746129_a_at) / Fold change /veh GSTM3 (11746129_a_at) / RFU IL23R (11737362_x_at) / Fold change /veh IL23R (11737362_x_at) / RFU TMEM51 (11727254_a_at) / Fold change /veh TMEM51 (11727254_a_at) / RFU PIWIL2 (11732686_x_at) / Fold change /veh PIWIL2 (11732686_x_at) / RFU ORM1 (11744905_x_at) / Fold change /veh ORM1 (11744905_x_at) / RFU CCDC152 (11743942_at) / Fold change /veh CCDC152 (11743942_at) / RFU ECM1 (11717891_a_at) / Fold change /veh ECM1 (11717891_a_at) / RFU IL23R (11748794_a_at) / Fold change /veh IL23R (11748794_a_at) / RFU TNFAIP8L3 (11732012_x_at) / Fold change /veh TNFAIP8L3 (11732012_x_at) / RFU MBOAT4 (11741988_at) / Fold change /veh MBOAT4 (11741988_at) / RFU 11764193_at / Fold change /veh 11764193_at / RFU TMEM53 (11763286_at) / Fold change /veh TMEM53 (11763286_at) / RFU MAGEB2 (11727129_at) / Fold change /veh MAGEB2 (11727129_at) / RFU TMEM200A (11744735_a_at) / Fold change /veh TMEM200A (11744735_a_at) / RFU CCDC152 (11751479_a_at) / Fold change /veh CCDC152 (11751479_a_at) / RFU FAM211A (11726209_a_at) / Fold change /veh FAM211A (11726209_a_at) / RFU RGS16 (11746705_a_at) / Fold change /veh RGS16 (11746705_a_at) / RFU VCAN (11755009_s_at) / Fold change /veh VCAN (11755009_s_at) / RFU RHOB (11743442_s_at) / Fold change /veh RHOB (11743442_s_at) / RFU RGS16 (11720943_a_at) / Fold change /veh RGS16 (11720943_a_at) / RFU RGS16 (11720944_at) / Fold change /veh RGS16 (11720944_at) / RFU, VPS4B / Fold change vs veh, VPS4B / RFU, CREB1 / Fold change vs veh, CREB1 / RFU, DNAJC13 / Fold change vs veh, DNAJC13 / RFU, GNAQ / Fold change vs veh, GNAQ / RFU, CDK5R1 / Fold change vs veh, CDK5R1 / RFU, ZRANB3 / Fold change vs veh, ZRANB3 / RFU, CUL4A / Fold change vs veh, CUL4A / RFU, CCNY / Fold change vs veh, CCNY / RFU, UFL1 / Fold change vs veh, UFL1 / RFU, COG3 / Fold change vs veh, COG3 / RFU, DIAPH2 / Fold change vs veh, DIAPH2 / RFU, SKA2 / Fold change vs veh, SKA2 / RFU, AFF3 / Fold change vs veh, AFF3 / RFU, LMF1 / Fold change vs veh, LMF1 / RFU, IPO11 / Fold change vs veh, IPO11 / RFU, DFFB / Fold change vs veh, DFFB / RFU, FOXP1 / Fold change vs veh, FOXP1 / RFU, CARD8 / Fold change vs veh, CARD8 / RFU, STRN3 / Fold change vs veh, STRN3 / RFU, ADK / Fold change vs veh, ADK / RFU, RASSF2 / Fold change vs veh, RASSF2 / RFU, WIPF1 / Fold change vs veh, WIPF1 / RFU, LARP1B / Fold change vs veh, LARP1B / RFU, RASA1 / Fold change vs veh, RASA1 / RFU, RB1 / Fold change vs veh, RB1 / RFU, PPFIA1 / Fold change vs veh, PPFIA1 / RFU, MAT2A / Fold change vs veh, MAT2A / RFU, CCT5 / Fold change vs veh, CCT5 / RFU, WDR92 / Fold change vs veh, WDR92 / RFU, CUX1 / Fold change vs veh, CUX1 / RFU, TTC7A / Fold change vs veh, TTC7A / RFU, TMEM135 / Fold change vs veh, TMEM135 / RFU, DEPTOR / Fold change vs veh, DEPTOR / RFU, CPM / Fold change vs veh, CPM / RFU, DNAJB6 / Fold change vs veh, DNAJB6 / RFU, CACNA2D3 / Fold change vs veh, CACNA2D3 / RFU, DTX4 / Fold change vs veh, DTX4 / RFU, TFCP2 / Fold change vs veh, TFCP2 / RFU, GMCL1 /// GMCL1P1 / Fold change vs veh, GMCL1 /// GMCL1P1 / RFU, AEBP2 / Fold change vs veh, AEBP2 / RFU, SNHG1 /// SNORD22 /// SNORD25 /// SNORD26 /// SNORD27 /// SNORD28 /// SNORD29 /// SNORD31 / Fold change vs veh, SNHG1 /// SNORD22 /// SNORD25 /// SNORD26 /// SNORD27 /// SNORD28 /// SNORD29 /// SNORD31 / Fold change (Aza/veh), C12orf56 (ProbeSet 11735607_a_at) / Fold change (ACY-1035/veh), C12orf56 (ProbeSet 11735607_a_at) / Fold change (Aza/veh), FGFR1OP (ProbeSet 11751329_s_at) / Fold change (ACY-1035/veh), FGFR1OP (ProbeSet 11751329_s_at) / Fold change (Aza/veh), VPS36 (ProbeSet 11739960_a_at) / Fold change (ACY-1035/veh), VPS36 (ProbeSet 11739960_a_at) / RFU SYPL1 (11715823_x_at) / Fold change /veh SYPL1 (11715823_x_at) / RFU IGFBP7 (11715501_s_at) / Fold change /veh IGFBP7 (11715501_s_at) / RFU REEP3 (11722064_at) / Fold change /veh REEP3 (11722064_at) / RFU IGLL1 (11728026_x_at) / Fold change /veh IGLL1 (11728026_x_at): dose or concentration left out as unconfirmed
Conditions: MV-4-11 cells, 48 hours

Structure (SMILES): Nc1ccc(-c2cccs2)cc1NC(=O)c1ccc2c(c1)cc(C1CC1)n2CCN1CCOCC1 [ACY-1035]
- RFU C5orf56 (11738088_a_at): 66.78 RFU
